{"source": "paper PMC5218480", "about": "(PLoS ONE, 2017)", "system": "MV-4-11 cells", "test": "Gene expression microarray analysis (Affymetrix PrimeView) and GSEA", "format": "cell-based, human", "set-up": "RFU PODN (11730768_x_at) / Fold change /veh PODN (11730768_x_at) / RFU LINC00158 (11744669_a_at) / Fold change /veh LINC00158 (11744669_a_at) / RFU DUSP10 (11751237_a_at) / Fold change /veh DUSP10 (11751237_a_at) / RFU ID3 (11757404_x_at) / Fold change /veh ID3 (11757404_x_at) / RFU PLEKHG5 (11737974_s_at) / Fold change /veh PLEKHG5 (11737974_s_at) / RFU LRRC4B (11730491_at) / Fold change /veh LRRC4B (11730491_at) / RFU GIMAP4 (11747438_a_at) / Fold change /veh GIMAP4 (11747438_a_at) / RFU KRT8 (11758183_x_at) / Fold change /veh KRT8 (11758183_x_at) / RFU CNN1 (11734310_a_at) / Fold change /veh CNN1 (11734310_a_at) / RFU VPS37D (11726825_at) / Fold change /veh VPS37D (11726825_at) / RFU C10orf10 (11716522_x_at) / Fold change /veh C10orf10 (11716522_x_at) / RFU KIR2DL2 /// KIR2DL4 /// KIR2DL5A /// KIR2DL5B /// KIR2DS1 /// KIR2DS2 /// KIR2DS3 /// KIR2DS4 /// KIR3DL3 /// KIR3DL3 /// KIR3DS1 (11738374_at) / Fold change /veh KIR2DL2 /// KIR2DL4 /// KIR2DL5A /// KIR2DL5B /// KIR2DS1 /// KIR2DS2 /// KIR2DS3 /// KIR2DS4 /// KIR3DL3 /// KIR3DL3 /// KIR3DS1 (11738374_at) / RFU C1QL1 (11718748_at) / Fold change /veh C1QL1 (11718748_at) / RFU TMPRSS4 (11747572_a_at) / Fold change /veh TMPRSS4 (11747572_a_at) / RFU HAMP (11756126_x_at) / Fold change /veh HAMP (11756126_x_at) / RFU RNFT2 (11725882_a_at) / Fold change /veh RNFT2 (11725882_a_at) / RFU NR4A2 (11747474_a_at) / Fold change /veh NR4A2 (11747474_a_at) / RFU ABCC12 (11746883_a_at) / Fold change /veh ABCC12 (11746883_a_at) / RFU TMEM136 (11760407_x_at) / Fold change /veh TMEM136 (11760407_x_at) / RFU CLDN22 /// WWC2 (11732394_at) / Fold change /veh CLDN22 /// WWC2 (11732394_at) / RFU HLA-DPB1 (11760878_x_at) / Fold change /veh HLA-DPB1 (11760878_x_at) / RFU SPINT1 (11716480_a_at) / Fold change /veh SPINT1 (11716480_a_at) / RFU GAP43 (11754022_s_at) / Fold change /veh GAP43 (11754022_s_at) / RFU A4GNT (11735810_at) / Fold change /veh A4GNT (11735810_at) / RFU PRB3 (11715151_x_at) / Fold change /veh PRB3 (11715151_x_at) / RFU TUBB4B (11761932_at) / Fold change /veh TUBB4B (11761932_at) / RFU CAPN14 (11732068_a_at) / Fold change /veh CAPN14 (11732068_a_at) / RFU TMCC2 (11721928_a_at) / Fold change /veh TMCC2 (11721928_a_at) / RFU IRGQ (11745062_a_at) / Fold change /veh IRGQ (11745062_a_at) / RFU FAM174B (11720279_a_at) / Fold change /veh FAM174B (11720279_a_at) / RFU TMPRSS4 (11748680_a_at) / Fold change /veh TMPRSS4 (11748680_a_at) / RFU FAM212B (11763350_a_at) / Fold change /veh FAM212B (11763350_a_at) / RFU PLEKHG5 (11743358_a_at) / Fold change /veh PLEKHG5 (11743358_a_at) / RFU ZSCAN30 (11745921_a_at) / Fold change /veh ZSCAN30 (11745921_a_at) / RFU CMKLR1 (11741424_a_at) / Fold change /veh CMKLR1 (11741424_a_at) / RFU LOC101060620 /// MAPK8IP1 (11723275_at) / Fold change /veh LOC101060620 /// MAPK8IP1 (11723275_at) / RFU SPTSSB (11747773_x_at) / Fold change /veh SPTSSB (11747773_x_at) / RFU PRSS12 (11739890_at) / Fold change /veh PRSS12 (11739890_at) / RFU BIN1 (11741810_x_at) / Fold change /veh BIN1 (11741810_x_at) / RFU WNT11 (11732464_a_at) / Fold change /veh WNT11 (11732464_a_at) / RFU C10orf10 (11716521_a_at) / Fold change /veh C10orf10 (11716521_a_at) / RFU C5orf56 (11738089_at) / Fold change /veh C5orf56 (11738089_at) / RFU CYB561 (11721691_x_at) / Fold change /veh CYB561 (11721691_x_at) / RFU ANKRD19P (11752326_a_at) / Fold change /veh ANKRD19P (11752326_a_at) / RFU OR2T12 /// OR2T33 /// OR2T8 (11738714_s_at) / Fold change /veh OR2T12 /// OR2T33 /// OR2T8 (11738714_s_at) / RFU VCAN (11748164_a_at) / Fold change /veh VCAN (11748164_a_at) / RFU JSRP1 (11732532_at) / Fold change /veh JSRP1 (11732532_at) / RFU KRTAP10-11 (11738290_x_at) / Fold change /veh KRTAP10-11 (11738290_x_at) / RFU MYO3A (11730013_a_at) / Fold change /veh MYO3A (11730013_a_at) / RFU EBF3 (11725865_a_at) / Fold change /veh EBF3 (11725865_a_at) / RFU CAMK2N1 (11719241_x_at) / Fold change /veh CAMK2N1 (11719241_x_at) / RFU C5orf56 (11738088_a_at) / Fold change /veh C5orf56 (11738088_a_at) / RFU OLFML3 (11715873_a_at) / Fold change /veh OLFML3 (11715873_a_at) / RFU LOC100653217 /// NTM (11731650_a_at) / Fold change /veh LOC100653217 /// NTM (11731650_a_at) / RFU MAPK11 (11762145_a_at) / Fold change /veh MAPK11 (11762145_a_at) / RFU FIZ1 (11724087_x_at) / Fold change /veh FIZ1 (11724087_x_at) / RFU OASL (11726364_x_at) / Fold change /veh OASL (11726364_x_at) / RFU SOX15 (11748057_x_at) / Fold change /veh SOX15 (11748057_x_at) / RFU CD79A (11719716_a_at) / Fold change /veh CD79A (11719716_a_at) / RFU HIST1H1D (11736915_at) / Fold change /veh HIST1H1D (11736915_at) / RFU CASKIN2 (11723855_a_at) / Fold change /veh CASKIN2 (11723855_a_at) / RFU LOC730098 (11760151_x_at) / Fold change /veh LOC730098 (11760151_x_at) / RFU OR4N2 (11742367_at) / Fold change /veh OR4N2 (11742367_at) / RFU PRRT2 (11749266_a_at) / Fold change /veh PRRT2 (11749266_a_at) / RFU SNX32 (11753110_a_at) / Fold change /veh SNX32 (11753110_a_at) / RFU CDHR5 (11726645_a_at) / Fold change /veh CDHR5 (11726645_a_at) / RFU RCAN1 (11760418_a_at) / Fold change /veh RCAN1 (11760418_a_at) / RFU FAM167A (11723789_a_at) / Fold change /veh FAM167A (11723789_a_at) / RFU FAM26E (11764081_at) / Fold change /veh FAM26E (11764081_at) / RFU ISYNA1 (11749810_s_at) / Fold change /veh ISYNA1 (11749810_s_at) / RFU ACY1 (11761880_at) / Fold change /veh ACY1 (11761880_at) / RFU 11764098_at / Fold change /veh 11764098_at / RFU SAMD14 (11745864_x_at) / Fold change /veh SAMD14 (11745864_x_at) / RFU NPB (11741838_a_at) / Fold change /veh NPB (11741838_a_at) / RFU TMPRSS6 (11731388_a_at) / Fold change /veh TMPRSS6 (11731388_a_at) / RFU KRTAP10-2 (11738614_at) / Fold change /veh KRTAP10-2 (11738614_at) / RFU ARHGAP8 /// PRR5-ARHGAP8 (11727945_x_at) / Fold change /veh ARHGAP8 /// PRR5-ARHGAP8 (11727945_x_at) / RFU KRTAP5-7 /// NADSYN1 (11734609_at) / Fold change /veh KRTAP5-7 /// NADSYN1 (11734609_at) / RFU RASL12 (11751679_a_at) / Fold change /veh RASL12 (11751679_a_at) / RFU CDKN2B (11736163_a_at) / Fold change /veh CDKN2B (11736163_a_at) / RFU PRF1 (11729649_at) / Fold change /veh PRF1 (11729649_at) / RFU, ZNF638 /// ZNF638-IT1 / Fold change vs veh, ZNF638 /// ZNF638-IT1 / RFU, PANK3 / Fold change vs veh, PANK3 / RFU, SH3YL1 / Fold change vs veh, SH3YL1 / RFU, ZEB2 / Fold change vs veh, ZEB2 / RFU, NRIP1 / Fold change vs veh, NRIP1 / RFU, PTTG1IP / Fold change vs veh, PTTG1IP / RFU, CAPN2 / Fold change vs veh, CAPN2 / RFU, MED14 / Fold change vs veh, MED14 / RFU, SNORA58 / Fold change vs veh, SNORA58 / RFU, C1orf63 / Fold change vs veh, C1orf63 / RFU, LRRFIP1 / Fold change vs veh, LRRFIP1 / RFU, NDUFAF7 / Fold change vs veh, NDUFAF7 / RFU, SLC12A2 / Fold change vs veh, SLC12A2 / RFU, IBTK / Fold change vs veh, IBTK / RFU, ESF1 / Fold change vs veh, ESF1 / Fold change vs veh, TMEM50B / RFU, TAOK1 / Fold change vs veh, TAOK1 / RFU, ACBD3 / Fold change vs veh, ACBD3 / RFU, TMA16 / Fold change vs veh, TMA16 / RFU, RWDD3 / Fold change vs veh, RWDD3 / RFU, BCAT1 / Fold change vs veh, BCAT1 / RFU, EDEM3 / Fold change vs veh, EDEM3 / RFU, TMEM33 / Fold change vs veh, TMEM33 / RFU, WDR75 / Fold change vs veh, WDR75 / RFU, AHCTF1 / Fold change vs veh, AHCTF1 / RFU, TFRC / Fold change vs veh, TFRC / RFU, ZDHHC17 / Fold change vs veh, ZDHHC17 / RFU, NOM1 / Fold change vs veh, NOM1 / RFU, ARL8B / Fold change vs veh, ARL8B / RFU, ZBTB11 / Fold change vs veh, ZBTB11 / RFU, TAMM41 / Fold change vs veh, TAMM41 / RFU, KIAA1704 /// LOC100996395 / Fold change vs veh, KIAA1704 /// LOC100996395 / RFU, ING1 / Fold change vs veh, ING1 / RFU, TRMT61B / Fold change vs veh, TRMT61B / RFU, FUBP3 / Fold change vs veh, FUBP3 / RFU, TP53 / Fold change vs veh, TP53 / RFU, TNKS2 / Fold change vs veh, TNKS2 / RFU, ZFP14 / Fold change vs veh, ZFP14 / RFU, ACTR2 / Fold change vs veh, ACTR2 / RFU, PPP3R1 / Fold change vs veh, PPP3R1 / RFU, PIK3R1 / Fold change vs veh, PIK3R1 / RFU, HNRNPA1 / Fold change vs veh, HNRNPA1 / RFU, RNF170 / Fold change vs veh, RNF170 / RFU, ZNF28 / Fold change vs veh, ZNF28 / RFU, RNGTT / Fold change vs veh, RNGTT / RFU, OGT / Fold change vs veh, OGT / RFU, BRD1 / Fold change vs veh, BRD1 / RFU, MARS / Fold change vs veh, MARS / RFU, ZNF655 / Fold change vs veh, ZNF655 / RFU, FAHD1 / Fold change vs veh, FAHD1 / RFU, BDP1 / Fold change vs veh, BDP1 / RFU, LRRCC1 / Fold change vs veh, LRRCC1 / RFU, ARID1A / Fold change vs veh, ARID1A / RFU, ZNF146 / Fold change vs veh, ZNF146 / RFU, ZNF330 / Fold change vs veh, ZNF330 / RFU, GPN3 / Fold change vs veh, GPN3 / RFU, C9orf123 / Fold change vs veh, C9orf123 / RFU, N4BP2L2 / Fold change vs veh, N4BP2L2 / RFU, ARFIP1 / Fold change vs veh, ARFIP1 / RFU, FAM179B / Fold change vs veh, FAM179B / RFU, BCL10 / Fold change vs veh, BCL10 / RFU, UHRF1BP1L / Fold change vs veh, UHRF1BP1L / RFU, BET1 / Fold change vs veh, BET1 / RFU, CNOT2 / Fold change vs veh, CNOT2 / RFU, ZNF268 / Fold change vs veh, ZNF268 / Fold change vs veh, ZNF507 / RFU, DGCR2 / Fold change vs veh, DGCR2 / RFU, WDSUB1 / Fold change vs veh, WDSUB1 / Fold change vs veh, HSP90B1 /// MIR3652 / RFU, ADSS / Fold change vs veh, ADSS / RFU, GK / Fold change vs veh, GK / RFU, ZNF148 / Fold change vs veh, ZNF148 / RFU, TAF9 / Fold change vs veh, TAF9 / RFU, SLC1A5 / Fold change vs veh, SLC1A5 / RFU, SLMO2 / Fold change vs veh, SLMO2 / RFU, ABCC4 / Fold change vs veh, ABCC4 / RFU, LOC101060439 /// RAP1B / Fold change vs veh, LOC101060439 /// RAP1B / RFU, RFX7 / Fold change vs veh, RFX7 / RFU, GTPBP10 / Fold change vs veh, GTPBP10 / RFU, CNEP1R1 / Fold change vs veh, CNEP1R1 / RFU, BIVM-ERCC5 /// ERCC5 / Fold change vs veh, BIVM-ERCC5 /// ERCC5 / RFU, ILF3 / Fold change vs veh, ILF3 / RFU 11762660_at / Fold change /veh 11762660_at / RFU VCAN (11757783_s_at) / Fold change /veh VCAN (11757783_s_at) / RFU DDX43 (11728927_at) / Fold change /veh DDX43 (11728927_at) / RFU KRT8 (11758188_x_at) / Fold change /veh KRT8 (11758188_x_at) / RFU NKD1 (11759106_at) / Fold change /veh NKD1 (11759106_at) / RFU SRD5A1 (11742802_a_at) / Fold change /veh SRD5A1 (11742802_a_at) / RFU TPSAB1 /// TPSB2 (11721975_s_at) / Fold change /veh TPSAB1 /// TPSB2 (11721975_s_at) / RFU GSTM3 (11746129_a_at) / Fold change /veh GSTM3 (11746129_a_at) / RFU IL23R (11737362_x_at) / Fold change /veh IL23R (11737362_x_at) / RFU TMEM51 (11727254_a_at) / Fold change /veh TMEM51 (11727254_a_at) / RFU PIWIL2 (11732686_x_at) / Fold change /veh PIWIL2 (11732686_x_at) / RFU ORM1 (11744905_x_at) / Fold change /veh ORM1 (11744905_x_at) / RFU CCDC152 (11743942_at) / Fold change /veh CCDC152 (11743942_at) / RFU ECM1 (11717891_a_at) / Fold change /veh ECM1 (11717891_a_at) / RFU IL23R (11748794_a_at) / Fold change /veh IL23R (11748794_a_at) / RFU TNFAIP8L3 (11732012_x_at) / Fold change /veh TNFAIP8L3 (11732012_x_at) / RFU MBOAT4 (11741988_at) / Fold change /veh MBOAT4 (11741988_at) / RFU 11764193_at / Fold change /veh 11764193_at / RFU TMEM53 (11763286_at) / Fold change /veh TMEM53 (11763286_at) / RFU MAGEB2 (11727129_at) / Fold change /veh MAGEB2 (11727129_at) / RFU TMEM200A (11744735_a_at) / Fold change /veh TMEM200A (11744735_a_at) / RFU CCDC152 (11751479_a_at) / Fold change /veh CCDC152 (11751479_a_at) / RFU FAM211A (11726209_a_at) / Fold change /veh FAM211A (11726209_a_at) / RFU RGS16 (11746705_a_at) / Fold change /veh RGS16 (11746705_a_at) / RFU VCAN (11755009_s_at) / Fold change /veh VCAN (11755009_s_at) / RFU RHOB (11743442_s_at) / Fold change /veh RHOB (11743442_s_at) / RFU RGS16 (11720943_a_at) / Fold change /veh RGS16 (11720943_a_at) / RFU RGS16 (11720944_at) / Fold change /veh RGS16 (11720944_at) / RFU, VPS4B / Fold change vs veh, VPS4B / RFU, CREB1 / Fold change vs veh, CREB1 / RFU, DNAJC13 / Fold change vs veh, DNAJC13 / RFU, GNAQ / Fold change vs veh, GNAQ / RFU, CDK5R1 / Fold change vs veh, CDK5R1 / RFU, ZRANB3 / Fold change vs veh, ZRANB3 / RFU, CUL4A / Fold change vs veh, CUL4A / RFU, CCNY / Fold change vs veh, CCNY / RFU, UFL1 / Fold change vs veh, UFL1 / RFU, COG3 / Fold change vs veh, COG3 / RFU, DIAPH2 / Fold change vs veh, DIAPH2 / RFU, SKA2 / Fold change vs veh, SKA2 / RFU, AFF3 / Fold change vs veh, AFF3 / RFU, LMF1 / Fold change vs veh, LMF1 / RFU, IPO11 / Fold change vs veh, IPO11 / RFU, DFFB / Fold change vs veh, DFFB / RFU, FOXP1 / Fold change vs veh, FOXP1 / RFU, CARD8 / Fold change vs veh, CARD8 / RFU, STRN3 / Fold change vs veh, STRN3 / RFU, ADK / Fold change vs veh, ADK / RFU, RASSF2 / Fold change vs veh, RASSF2 / RFU, WIPF1 / Fold change vs veh, WIPF1 / RFU, LARP1B / Fold change vs veh, LARP1B / RFU, RASA1 / Fold change vs veh, RASA1 / RFU, RB1 / Fold change vs veh, RB1 / RFU, PPFIA1 / Fold change vs veh, PPFIA1 / RFU, MAT2A / Fold change vs veh, MAT2A / RFU, CCT5 / Fold change vs veh, CCT5 / RFU, WDR92 / Fold change vs veh, WDR92 / RFU, CUX1 / Fold change vs veh, CUX1 / RFU, TTC7A / Fold change vs veh, TTC7A / RFU, TMEM135 / Fold change vs veh, TMEM135 / RFU, DEPTOR / Fold change vs veh, DEPTOR / RFU, CPM / Fold change vs veh, CPM / RFU, DNAJB6 / Fold change vs veh, DNAJB6 / RFU, CACNA2D3 / Fold change vs veh, CACNA2D3 / RFU, DTX4 / Fold change vs veh, DTX4 / RFU, TFCP2 / Fold change vs veh, TFCP2 / RFU, GMCL1 /// GMCL1P1 / Fold change vs veh, GMCL1 /// GMCL1P1 / RFU, AEBP2 / Fold change vs veh, AEBP2 / RFU, SNHG1 /// SNORD22 /// SNORD25 /// SNORD26 /// SNORD27 /// SNORD28 /// SNORD29 /// SNORD31 / Fold change vs veh, SNHG1 /// SNORD22 /// SNORD25 /// SNORD26 /// SNORD27 /// SNORD28 /// SNORD29 /// SNORD31 / Fold change (Aza/veh), C12orf56 (ProbeSet 11735607_a_at) / Fold change (ACY-1035/veh), C12orf56 (ProbeSet 11735607_a_at) / Fold change (Aza/veh), FGFR1OP (ProbeSet 11751329_s_at) / Fold change (ACY-1035/veh), FGFR1OP (ProbeSet 11751329_s_at) / Fold change (Aza/veh), VPS36 (ProbeSet 11739960_a_at) / Fold change (ACY-1035/veh), VPS36 (ProbeSet 11739960_a_at) / RFU SYPL1 (11715823_x_at) / Fold change /veh SYPL1 (11715823_x_at) / RFU IGFBP7 (11715501_s_at) / Fold change /veh IGFBP7 (11715501_s_at) / RFU REEP3 (11722064_at) / Fold change /veh REEP3 (11722064_at) / RFU IGLL1 (11728026_x_at) / Fold change /veh IGLL1 (11728026_x_at): dose or concentration left out as unconfirmed", "settings": "MV-4-11 cells, 48 hours"}
{"smiles": "Nc1ncn([C@@H]2O[C@H](CO)[C@@H](O)[C@H]2O)c(=O)n1", "note": "[azacitidine]", "values": [{"measurement": "Fold change /veh PIWIL2 (11732686_x_at)", "value": 1.30}]}
